# Measured values taken from patent US8394990B2, “Phenylurea inhibitors of the enzyme SOAT-1 and pharmaceutical/cosmetic compositions comprised thereof” (Galderma Research & Development, priority 2007, dated 2013).
# Molecular target: T1, enzyme ACAT-1 (Homo sapiens, UniProt P35610)
# T1 construct: endogenous in cells; host or cells: HepG2
# T1 sequence (P35610 1-550): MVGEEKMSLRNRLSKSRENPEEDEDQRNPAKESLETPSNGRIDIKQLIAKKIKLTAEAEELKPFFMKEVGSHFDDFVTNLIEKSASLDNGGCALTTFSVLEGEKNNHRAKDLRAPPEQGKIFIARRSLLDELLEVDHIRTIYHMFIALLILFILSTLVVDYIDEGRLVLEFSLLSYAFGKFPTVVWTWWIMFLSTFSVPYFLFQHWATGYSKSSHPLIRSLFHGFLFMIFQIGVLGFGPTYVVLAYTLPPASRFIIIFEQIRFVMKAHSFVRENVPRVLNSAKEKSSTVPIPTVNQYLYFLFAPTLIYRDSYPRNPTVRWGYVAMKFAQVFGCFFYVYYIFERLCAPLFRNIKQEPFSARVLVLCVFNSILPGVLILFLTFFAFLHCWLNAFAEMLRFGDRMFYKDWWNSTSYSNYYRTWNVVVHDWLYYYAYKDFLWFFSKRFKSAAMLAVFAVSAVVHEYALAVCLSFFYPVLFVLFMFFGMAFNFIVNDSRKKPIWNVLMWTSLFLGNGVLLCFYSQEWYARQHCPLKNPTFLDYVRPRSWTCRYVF
# Experiment: NBD-cholesterol fluorescence test in HepG2 cells for inhibitory activity towards ACAT-1 (SOAT-1)
# Type: cell-based
# Conditions: NBD-cholesterol 1 μg/ml, incubation 6 hrs at 37° C., fluorescence excitation 490 nm, emission 540 nm
# Description: The compounds (I) according to the invention, and the pharmaceutically acceptable salts, solvates and/or hydrates thereof, have inhibitory properties towards the enzyme SOAT-1. This inhibitory action on the enzyme SOAT-1 is measured according to a primary enzymatic test HepG2, as described below.
# The compounds of formula (I) according to the invention were subjected to a test making it possible to evaluate their inhibitory activity towards the enzyme ACAT-1 inspired by the following publication: “Identification of ACAT1- and ACAT2-specific inhibitors using a novel, cell based fluorescence assay: individual ACAT uniqueness” J. lipid. Res (2004) vol 45, pages 378-386. The principle of this test is based on the use of NBD-cholesterol, an analogue of cholesterol whose fluorescence depends on its environment. When it is in a polar environment, it is weakly fluorescent, whereas in a non-polar environment it is strongly fluorescent. […]
# The following method is applied: the HepG2 cells are incubated in the presence of NBD-cholesterol (1 μg/ml) and of the compound of formula (I) to be tested in transparent-bottomed black 96-well plates at a level of 30000 cells per well. […] After addition of 50 μl of lysis buffer (10 mM NaPO4, 1% lgepal), the plates are shaken for 5 mins and read in fluorescence (excitation 490 nm, emission 540 nm) on a FUSION instrument (Perkin Elmer).
row,IC50,SMILES
1,24.1 nM,"CC(C)c1cccc(C(C)C)c1NC(=O)NCC1(Nc2ccccc2I)CCCC1 [I.2, 1-(2,6-diisopropylphenyl)-3-[1-(2-iodophenylamino)-cyclopentylmethyl)-urea]"
2,9.5 nM,"CC(C)c1cccc(C(C)C)c1NC(=O)NCC1(Nc2ccccc2-c2ccccc2)CCCC1 [I.4, 1-[1-(biphenyl-2-ylamino)-cyclopentylmethyl]-3-(2,6-diisopropylphenyl)-urea]"
